# Assay results published in PMC3625590, “NBM-T-L-BMX-OS01, Semisynthesized from Osthole, Is a Novel Inhibitor of Histone Deacetylase and Enhances Learning and Memory in Rats” (Evidence-based Complementary and Alternative Medicine : eCAM, 2013).
# Test system: HEK293T cells
# Assay: CRE promoter-luciferase assay
# Format: cell-based
# Experimental: Supplemental Materials and Methods
# 2.1. HEK293T cells. HEK293T cells were maintained in Dulbecco’s modified Eagle’s medium (Invitrogen) supplemented with 10% fetal calf serum (Invitrogen). Cultures were maintained in a humidified 5% CO2-95% air atmosphere at 37°C.
# 2.2. Immunocytochemistry. Cultured hippocampal neurons were fixed with 4% paraformaldehyde for 15 min and permeablized with 0.1% Triton X-100 for 20 min at room temperature (RT). The primary Mouse anti-β III tubulin and anti-actin (Millipore) Abs were added for 1 h at RT. After wash, Alexa Fluor 488 […] Ab (Molecular Probes, Europe BV, Leiden, Netherlands) were incubated with cells for 1 h at RT. Coverslips were mounted, and images were obtained by using a Axio Observer D1 microscope (Zeiss, Jena, Germany). Neuronal process longer than […] is defined as neurites.
# 2.3. Western blot. […]
# The lysate was resolved by 8% SDS-PAGE. […] The protein bands were quantified using the NIH Image J Software. […]
# FBS. […] The activity of firefly luciferase was measured as firefly luciferase luminescence after reaction with luciferase reagent for 15 min. Next, the activity of Renilla luciferase is measured as Renilla luciferase luminescence after reaction with Stop & Glo reagent for 15 min.
# The ratio of firefly luciferase activity to Renilla luciferase activity was calculated and normalized to vector control.
smiles,measurement,value
"O=C(CCCCCCC(=O)Nc1ccccc1)NO [SAHA, suberoylanilide hydroxamic acid, reference compound]",CRE-mediated promoter activity,increased
